Where a chain is given by its changes, count along the chain named. Where two headings read alike, the source gives them in different places.
Experiments:
[1] = target: T1, K2P2.1 (TREK-1) (Mus musculus, UniProt P97438); assay: Two-electrode voltage clamp of Xenopus oocytes expressing K2P2.1 (TREK-1); assay type: cell-based, Murine
T1 construct: expressed in transfected cells; host or cells: Xenopus oocytes (cRNA injection, pGEMHE/pMO)
T1 sequence (P97438 1-411 isoform P97438-2): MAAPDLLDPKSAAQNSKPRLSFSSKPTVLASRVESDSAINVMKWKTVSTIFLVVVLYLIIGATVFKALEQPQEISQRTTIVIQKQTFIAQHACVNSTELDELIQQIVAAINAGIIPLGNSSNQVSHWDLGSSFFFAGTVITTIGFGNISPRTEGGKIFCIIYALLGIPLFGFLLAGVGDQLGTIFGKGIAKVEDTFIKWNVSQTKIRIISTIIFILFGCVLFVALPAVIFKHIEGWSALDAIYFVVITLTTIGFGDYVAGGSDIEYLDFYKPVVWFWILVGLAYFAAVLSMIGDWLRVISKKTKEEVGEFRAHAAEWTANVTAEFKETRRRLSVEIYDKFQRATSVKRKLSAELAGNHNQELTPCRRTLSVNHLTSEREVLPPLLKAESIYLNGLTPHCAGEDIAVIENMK
Method: Two-electrode voltage clamp recordings were performed from defolliculated stage V-VI Xenopus oocytes 24-48 hours after injection with 0.015-6.0 ng cRNA, using microelectrodes (0.3-3.0 MΩ) filled with 3M KCl. […] Recording solutions (mM): 2K (96 NaCl, 2 KCl, 1.8 CaCl2, 2 MgCl2), 90K (90 KCl, 8 NaCl, 1.8 CaCl2, 2 MgCl2), were buffered 5 mM HEPES pH 7.4. For K2P recordings, currents we elicited by a 1 second long ramp from −150 to +50 mV from a holding potential of −80 mV (2K), or −100 to +50 mV from a holding potential of 0 mV (90K). For KCNQ2 recordings, currents were elicited by a step protocol from −120 to 60 mV, in 20 mV increments, from a holding potential of −80 mV. […] Currents were elicited by a 1 second long ramp from −150 to +50 mV from a holding potential of −80 mV.

[2] = target: T2, K2P2.1 (TREK-1) W275S (Mus musculus, UniProt P97438, W290S); assay: Two-electrode voltage clamp, Xenopus oocytes, C-type gate mutant W275S; assay type: cell-based, Murine
T2 construct: expressed in transfected cells; host or cells: Xenopus oocytes
T2 sequence (P97438 1-411 isoform P97438-2 W275S): T1 sequence (P97438 1-411 isoform P97438-2) with W275S
Method: I-V curves were measured by two-electrode voltage clamp of Xenopus oocytes in b, 90 mM [K^+]o. or c-e, 2 mM [K^+]o. […] Data (were measured at 20 mV (90 mM [K^+]o) or 0 mV (2 mM [K^+]o), normalized to basal channel activity, and fitted to the Hill equation. Error bars indicate s.e., n≧6, N≧2.
Murine K2P channels were cloned into pGEMHE/pMO {Bagriantsev, 2011}, IRES-GFP (Invitrogen), or pYES2-MET25 (high copy 2μ, URA3) {Minor, 1999} for expression in oocytes, HEK-293T cells, and yeast, respectively, using standard molecular biology procedures, and verified by DNA sequencing.
Two-electrode voltage clamp recordings were performed from defolliculated stage V-VI Xenopus oocytes 24-48 hours after injection with 0.015-6.0 ng cRNA, using microelectrodes (0.3-3.0 MΩ) filled with 3M KCl. Data was acquired using the GeneClamp 500B (MDS Analytical Technologies) amplifier controlled by the pClamp software (Molecular Devices), and digitized at 1 kHz using Digidata 1332A (MDS Analytical Technologies). Recording solutions (mM): 2K (96 NaCl, 2 KCl, 1.8 CaCl2, 2 MgCl2), 90K (90 KCl, 8 NaCl, 1.8 CaCl2, 2 MgCl2), were buffered 5 mM HEPES pH 7.4. For K2P recordings, currents we elicited by a 1 second long ramp from −150 to +50 mV from a holding potential of −80 mV (2K), or −100 to +50 mV from a holding potential of 0 mV (90K). […]

Q: What does the source list for `CC1(C)c2cc(Cl)ccc2N(CCc2nnn[nH]2)c2ccc(Cl)cc21` [ML67-33, 2,7-dichloro-9,9-dimethyl-10-[2-(1H-tetrazol-5-yl)ethyl]acridine]?
A: EC50 ([1]; Xenopus oocytes, 2 mM [K+]o pH 7.4, data at 0 mV, normalized to basal activity, Hill fit, read-out: EC50): 36.3 ± 1.04 µM; Emax (fold) at 100 μM ([1]; Xenopus oocytes, at 100 μM (FIG. 4, 7 legends), marked ** in Table 1, footnote not given): 11.1±0.4 fold; Emax (fold) ([1]; Xenopus oocytes, fold over basal current, no concentration stated): 11.1 ± 0.4 fold; response of K2P2.1 (TREK-1) to ML67-33 with C-type gate stabilized (in words) ([1]; high extracellular potassium, 90 mM [K+]o): reduced the response; EC50 ([1]; spans oocytes and HEK cells, read-out: concentration at which the compound acts (EC50 range)): 9.7 to 36.3 µM; EC50 [2]: 21.8 ± 1.3 µM; Emax (fold) [2]: 5.1 ± 0.6 fold

From US9862684B2, “Modulation of K2P channels” (The Regents of the University of California, priority 2013, dated 2018)
